Assay results published in patent publication US20150344822A1, “Decontaminant and Process for Decontamination of Chemicals from Infrastructural Materials” (priority 2014, published 2015).
Several values for one entry are separate records, joined by “and”; a condition that tells them apart may be missing. Identical values can stand only once. Like-named read-outs stand apart in the source and are kept apart here.

How the values were obtained:
[1] = Task 1A: surface adherence of contaminants on pipe materials, 7 days at 20-25° C.; format: physicochemical; conditions: comparison of Tasks 1A, 1B, 1C
[2] = Task 1: removal of adhered chemicals by three de-ionized water rinses and extractant; conditions: for Aqueous concentration of mercury, Extraction: adherence at 4-6° C.; for Aqueous concentration, Extractant: after 24 hours; for Aqueous concentration, Extractant / Aqueous concentration of mercury, Extractant: 20-25° C.; for Aqueous concentration of mercury, Extractant: after 7 days, initial 22829.8 mg/L, extractant = chemical decontaminant of the present disclosure
Method: In Task 1, the pipes were rinsed immediately after the equilibrated solution was transferred into the analytical sample vials. Thereafter, de-ionized water at room temperature was used for rinsing the pipes. Three consecutive rinses were conducted using de-ionized water at room temperature. In case of aged black iron pipe, the aqueous solution was centrifuged before transferring to the sample vials to avoid entrainment of colloidal corroded iron particles in the solution. During the extraction step, the pipes were about half filled with the extraction solution and wrapped tightly. The 4″ diameter pipes were filled with 150 mL of extraction solution. The copper, PVC, and HDPE pipes were filled with 55 mL of extraction solution, while the epoxy and the aged metal pipes were filled with 85 mL of extraction solution. […] After shaking for 1 hour, the pipes were flipped in order to get contact with the entire inner surface of the pipe. The extraction solutions were transferred to the appropriate sample vial.
(§1) The sample was introduced via a peristaltic pump by pneumatic nebulization into radio frequency plasma where energy transfer processes cause desolvation, atomization, and ionization. The ions were extracted from the plasma through a pumped vacuum interface and separated on the basis of their mass-to-charge ratio by a quadrupole mass spectrometer. The ions transmitted through the quadrupole were registered by a continuous dynode electron multiplier and the ion information was processed by a data handling system.
In this table, m0 and mi are the initial and final amounts of chemical in water.
Water rinse was done to remove the weakly-bound chemicals, while the strongly-bound chemicals, if any, were extracted with stronger solvents.

rat = conditions: oral (rat); cited from earlier work
[3] = cited from earlier work
[4] = product as supplied; cited from earlier work
[5] = Task 2: efficacy of decontamination agents (extraction and subsequent rinses); conditions: for Aqueous concentration of mercury, Extraction: extractant hypochlorite (300 mg/L), mercury input 19530.00 mg/L, adhered 7 days, 20-25° C.
Source text: The pipe materials used for subtask 2 were DIE, DIW, PVC and copper. […] Types of interactions included scrubbing, flushing, recirculation, shaking and static equilibrium.
After equilibration, the contaminant was extracted using the various decontamination agents. […] Surfactant molecules have both hydrophilic and hydrophobic parts, and the most attractive place for them in water is at the surface where the forces of both attraction and repulsion to water can be satisfied. […] The aqueous solutions of these decontaminants were prepared using the available chemical decontaminants and diluting them to required concentration by adding DI water. Appropriate volume corrections were conducted for NaOCl considering available solution concentration of NaOCl received from the supplier.
as §1

[6] = hazardous ingredient of the product; cited from earlier work

## O=C(O)CF [fluoroacetate]
[1]
  Adhesion coefficients under 7 days and room temperature condition versus 24 hours or low temperature conditions: generally higher

## Mercuric chloride [Mercury]
[2]; Copper pipe, Mercury #1, initial 7737.5 mg/L
  Aqueous concentration of mercury, Extraction: 515.7 mg/L and 272.8 mg/L
[2]; Copper pipe, Mercury #1, initial 8171.5 mg/L
  Aqueous concentration, Extractant: 702.4 mg/L and 559.3 mg/L
[2]; Copper pipe, Mercury #2, initial 23950.0 mg/L
  Aqueous concentration, Extractant: 1820.0 mg/L and 2140.0 mg/L
[2]; Copper pipe, Mercury #2, initial 28800.0 mg/L
  Aqueous concentration of mercury, Extraction: 2930.0 mg/L and 2800.0 mg/L
[2]; Copper pipe
  Aqueous concentration of mercury, Extractant: 7368.1 mg/L and 6413.5 mg/L
[2]; DIE pipe
  Aqueous concentration of mercury, Extractant: 187.6 mg/L and 179.1 mg/L
[2]; DIO pipe
  Aqueous concentration of mercury, Extractant: 9532.2 mg/L and 7156.1 mg/L
[2]; DIW pipe, Mercury #1, initial 8171.5 mg/L
  Aqueous concentration, Extractant: 684.6 mg/L and 914.1 mg/L
[2]; DIW pipe, Mercury #2, initial 28800.0 mg/L
  Aqueous concentration of mercury, Extraction: 1520.0 mg/L and 2290.0 mg/L
[2]; HDPE pipe
  Aqueous concentration of mercury, Extractant: 0.3 mg/L and 0.5 mg/L
[2]; PVC pipe, Mercury #1, initial 7737.5 mg/L
  Aqueous concentration of mercury, Extraction: 1.6 mg/L and 2.6 mg/L

## COP(=O)(OC)OC=C(Cl)Cl [Dichlorvos]
rat
  LD50: LD50 oral (rat) 56 to 80 mg/kg
[3]; at pH 4
  Hydrolysis: slow
[3]; at pH 9
  Hydrolysis: rapid
[3]; between pH 4 and pH 9
  Half-life: 20 to 80 h

## COP(=O)(OC)O/C(C)=C/C(=O)N(C)C [Dicrotophos]
rat
  LD50: Oral LD50 for rats is 16- 21 mg/kg.
[3]; at 75° C.
  time after which decomposed: 31 days
[3]; at 90° C.
  time after which decomposed: 7 days
[3]; stored in glass or polythene containers up to 40° C.
  storage stability: stable

## OCl [Sodium Hypochlorite, Sodium hypochlorite]
[4]
  pH: ~13
[5]; COP (copper) pipe, listed as Hypochlorite
  Aqueous concentration of mercury, Extraction: 11.01 mg/L and 8.48 mg/L
[5]; COP (copper) pipe, listed as hypochlorite
  Aqueous concentration of mercury, Extraction: 8.5 mg/L and 11 mg/L
[5]; DIE pipe
  Aqueous concentration of mercury, Extraction: 133.91 mg/L and 136.16 mg/L
[5]; DIW pipe, listed as Hypochlorite
  Aqueous concentration of mercury, Extraction: 251.05 mg/L and 315.47 mg/L
[5]; DIW pipe, listed as hypochlorite
  Aqueous concentration of mercury, Extraction: 251 mg/L and 315 mg/L
[5]; PVC pipe
  Aqueous concentration of mercury, Extraction: 290.19 mg/L and 172.41 mg/L
[5]; mercury adhered on DIW and copper pipes
  effectiveness in releasing / removing adhered mercury: not effective
[5]; mercury and organophosphates, solid surfaces
  removal / recovery of contaminants compared with the other decontaminants tested: significantly less

## CCCCOCCO [Butyl cellosolve]
[6]
  PEL: 25 mg/L
  TLV: 25 mg/L
